In patent publication US6015838A, “Aqueous film-forming foam compositions” (3M Innovative Properties Company, priority 1996, dated 2000):

Columns and labels:
[1] = Stability of esters to concentrated aqueous ammonium hydroxide; type: physicochemical; details: stirred 2 days (comparable conditions)
From the text: The acrylate and methacrylate esters from Examples D1-D11 were fully recoverable with essentially no degradation after being stirred with concentrated aqueous ammonium hydroxide for a period of 2 days.

rats = experiment: Acute LD50, one-time feeding study of rats; type: in vivo, rat
Procedure: Acute LD50 measurements for a one-time feeding study of rats were determined over a 21 day period for both the a-branched perfluorocarboxylate salt, C7 F15 CF(CF3)COO^- NH4^+, and its straight chain isomer, CF3 (CF2)8 COO^- NH4^+.

[2] = literature; cited from earlier work
[3] = Thermal degradation in aqueous media; type: physicochemical
Procedure: The thermal degradation of an aqueous a-branched perfluoroalkylcarbonyl fluoride and the characterization of the products produced from the degradation were carried out using the following procedure. 8 g of C7 F15 CF(CF3)COF (made as in Example A4) was dispersed in deionized water and was refluxed for 2 hours. 5.7 g of volatile degradation products were then collected by azeotropic distillation using a Dean-Stark apparatus.
The thermal degradation of C7 F15 CF(CF3)COF (from Example A4) dispersed in water was also carried out by heating the aqueous mixture for several hours at approximately 80° C.

[4] = Thermogravimetric analysis of neat perfluorocarboxylate salts; type: physicochemical; details: neat salt, 10° C./min, nitrogen
From the text: Thermal degradation measurements were made on a series of neat perfluorocarboxylate salts, including several ax-branched open chain structures (Examples N2-N9), a primarily linear open chain structure (Example N10--Fluorad™ FC-143 Fluorochemical Surfactant, commercially available from 3M Company, St. Paul, Minn.), and a closed chain (i.e., cyclic) structure (Example N11--made by the electrochemical fluorination of benzoic acid and hydrolysis in the presence of KOH, as described in U.S. Pat. No. 2,567,011 (Diesslin et al.)).
The perfluorocarboxylate salts were tested using a Perkin-Elmer TGA 7 thermogravimetric analysis apparatus and a salt sample size of approximately 5 mg, a heating rate of 10° C./min, and a nitrogen gas flow rate of 40-45 mL/min. Using the TGA 7 software, the following temperatures were recorded: (1) the onset temperature of decomposition, (2) the temperature at which 50% of the sample weight was lost, and (3) the temperature at which 90% of the sample weight was lost.

[5] = Surface tension and critical micelle concentration (CMC) of aqueous surfactant solutions; type: physicochemical; details: Table 5; deionized water, at CMC
From the text: Critical Micelle Concentration (CMC): The critical micelle concentration is defined as the concentration at which further surface tension is no longer lowered with increasing levels of surfactant. […] Surface tension is then plotted vs. log concentration and the data points are connected. The resulting curve has a nearly horizontal flat portion at concentrations above the CMC and has a negative steep slope at concentrations below the CMC. The CMC is defined as the lowest surfactant concentration in the horizontal flat portion of the curve.
(§1) Then the critical micelle concentration (CMC) was determined for each surfactant.
as §1

[6] = Storage of 5% aqueous solution at room temperature; type: physicochemical
Procedure: The α-branched open chain ammonium salt compounds from Examples N3-N6 were dissolved in deionized water at a concentration of 5% by weight (0.5 g ammonium salt in 10 mL water) and were stored at room temperature.

C=CC(=O)OCCOC(=O)C(F)(F)C(F)(F)C(F)(F)C(F)(F)C(F)(F)C(F)(F)C(F)(F)F [C7 F15 COOCH2 CH2 OCOCH=CH2]
hydrolytic stability in concentrated aqueous ammonium hydroxide [1]: readily hydrolyzed

O=C(O)C(F)(F)C(F)(F)C(F)(F)C(F)(F)C(F)(F)C(F)(F)C(F)(F)C(F)(F)C(F)(F)F [C9 F19 COO^- NH4^+, CF3 (CF2)8 COO^- NH4^+, reference compound]
toxicity relative to the α-branched isomer (rats; LD50 comparison): ca. 10 times
acute toxicity (in words) (rats; one-time feeding, rats): moderately toxic
wasting syndrome (rats; one-time feeding, rats): Wasting syndrome was observed
toxicity (in words) [2]: moderately toxic

O=C(O)C(F)(C(F)(F)F)C(F)(F)C(F)(F)C(F)(F)C(F)(F)C(F)(F)C(F)(F)C(F)(F)F (stereo not drawn) [Example M1, C7 F15 CF(CF3)COOH]
degradation products (in words) ([3]; aqueous solution, carried out in a similar way): the same monohydride and olefin

O=C(O)C(F)(C(F)(F)F)C(F)(F)C(F)(F)C(F)(F)C(F)(F)C(F)(F)F (stereo not drawn) [Example M15, C5 F11 CF(CF3)COO^- H4 N^+]
onset temperature of decomposition ([4]; listed as N2): 166 °C
temperature for 50% loss ([4]; listed as N2): 178 °C
temperature for 90% loss ([4]; listed as N2): 188 °C
Surf. Tens. (surface tension at the CMC) [5]: 22.1 dynes/cm

O=C(O)C(F)(C(F)(F)F)C(F)(F)C(F)(F)C(F)(F)C(F)(F)C(F)(F)C(F)(F)F (stereo not drawn) [Example M16, C6 F13 CF(CF3)COO^- H4 N^+]
onset temperature of decomposition [4]: 165 °C
temperature for 50% loss [4]: 179 °C
temperature for 90% loss [4]: 193 °C
Surf. Tens. (surface tension at the CMC) [5]: 17.9 dynes/cm

O=C(O)C(F)(C(F)(F)F)C(F)(F)C(F)(F)C(F)(F)C(F)(F)C(F)(F)C(F)(F)C(F)(F)C(F)(F)F (stereo not drawn) [Example M17, C8 F17 CF(CF3)COO^- H4 N^+]
onset temperature of decomposition [4]: 142 °C
temperature for 50% loss [4]: 162 °C
temperature for 90% loss [4]: 184 °C
Surf. Tens. (surface tension at the CMC) [5]: 14.7 dynes/cm

O=C(O)C(F)(F)C(F)(F)C(F)(F)C(F)(F)C(F)(F)C(F)(F)C(F)(F)F [FC-143, C7 F15 COO^- H4 N^+]
degradation over 1 year (in words) [6]: no signs of degradation
onset temperature of decomposition [4]: 173 °C
temperature for 50% loss [4]: 188 °C
temperature for 90% loss [4]: 202 °C
Surf. Tens. (surface tension at the CMC) [5]: 21.5 dynes/cm

O=C(F)C(F)(C(F)(F)F)C(F)(F)C(F)(F)C(F)(F)C(F)(F)C(F)(F)C(F)(F)C(F)(F)F (stereo not drawn) [Example A1, C7 F15 CF(CF3)COF]
degradation products (in words) ([3]; aqueous mixture heated several hours at approximately 80° C.): The same volatile products were formed
olefin in degradation products ([3]; dispersed in deionized water, refluxed 2 hours, C6 F13 CF=CFCF3): 15%
monohydride in degradation products ([3]; dispersed in deionized water, refluxed 2 hours, C7 F15 CFHCF3): 85%
volatile degradation products collected ([3]; from 8 g, refluxed 2 hours in deionized water): 5.7 g
